Test results reported in ChEMBL document CHEMBL1127992, “Novel conformationally restricted aromatic piperidines as selective sigma receptor ligands” (Bioorg Med Chem Lett, 1994).

How the values were obtained:
[1] = target: Serotonin 2 (5-HT2) receptor (Homo sapiens, UniProt P41595+P28223+P28335); test: Displacement of [3H]ketanserin from 5-hydroxytryptamine 2 receptor; format: protein assay
D(2) dopamine receptor = D(2) dopamine receptor (Homo sapiens, UniProt P14416); test: Displacement of [3H]-spiperone from dopamine D2 receptor
Chain of D(2) dopamine receptor (P14416 whole entry): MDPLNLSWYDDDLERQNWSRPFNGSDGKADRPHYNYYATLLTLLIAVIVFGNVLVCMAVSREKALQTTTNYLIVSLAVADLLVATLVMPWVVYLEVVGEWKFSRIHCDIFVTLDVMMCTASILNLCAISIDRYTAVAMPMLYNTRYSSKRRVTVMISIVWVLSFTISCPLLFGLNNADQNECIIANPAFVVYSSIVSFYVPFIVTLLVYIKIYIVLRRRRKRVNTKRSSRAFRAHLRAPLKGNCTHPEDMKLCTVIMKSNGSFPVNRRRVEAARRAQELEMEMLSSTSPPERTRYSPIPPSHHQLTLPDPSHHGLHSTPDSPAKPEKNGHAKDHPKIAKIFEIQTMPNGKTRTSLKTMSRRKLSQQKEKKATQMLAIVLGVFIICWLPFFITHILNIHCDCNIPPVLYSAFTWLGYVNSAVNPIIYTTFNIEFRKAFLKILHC

SMILES	Ki [1] [nM]	IC50 (D(2) dopamine receptor) [µM]
C(=C\c1ccccc1)/CNC1CCN(Cc2ccccc2)CC1.O=C(O)/C=C/C(=O)O	4600	> 10
CN(C(=O)C#Cc1ccccc1)C1CCN(Cc2ccccc2)CC1.O=C(O)/C=C/C(=O)O	1700	4.9
CN(C/C=C/c1ccccc1)C1CCN(Cc2ccccc2)CC1.O=C(O)/C=C/C(=O)O	840	> 10
CN(CC#Cc1ccccc1)C1CCN(Cc2ccccc2)CC1.O=C(O)/C=C/C(=O)O	320	4.1
C(#Cc1ccccc1)CN(c1ccccc1)C1CCN(Cc2ccccc2)CC1.O=C(O)/C=C/C(=O)O	280	0.89
O=C(C#Cc1ccccc1)NC1CCN(Cc2ccccc2)CC1.O=C(O)/C=C/C(=O)O	280	2.5
C(=C\c1ccccc1)/CN(c1ccccc1)C1CCN(Cc2ccccc2)CC1.O=C(O)/C=C/C(=O)O	> 10000	> 10
C(#Cc1ccccc1)CNC1CCN(Cc2ccccc2)CC1.O=C(O)/C=C/C(=O)O	3300	> 10
O=C(/C=C/c1ccccc1)NC1CCN(Cc2ccccc2)CC1.O=C(O)/C=C/C(=O)O	100	4.7
C(=C\c1ccccc1)/CN(C/C=C/c1ccccc1)C1CCN(Cc2ccccc2)CC1.O=C(O)/C=C/C(=O)O	550	> 10
CN(C(=O)/C=C/c1ccccc1)C1CCN(Cc2ccccc2)CC1.O=C(O)/C=C/C(=O)O	1500	7.1
